# Key:
# WT mice [1] = experiment: DARPP32 protein level in striatum by Western blotting, WT mice; type: in vivo, mouse; settings: 5 mg/kg/d until 25 weeks, WT Vehicle = 100, n = 3
# Description: 7-week-old N171-82Q HD male mice were paired with female B6C3F1/J hybrid mice to obtain newborn mice. From 21 days of age, male mice were housed in separate cages. 0.5 cm of mouse tail tissue was removed to extract DNA to determine the genotype of the mouse, such that N171-82Q HD mice and WT mice needed for the experiment were obtained. The mice were randomly divided into WT Vehicle group (normal mice), WT test compound group (administration group of normal mice, 5 mg/kg/d, n=10), HD Vehicle group (blank group of HD mice, n=15), HD test compound group (administration groups 1-5 of HD mice, 5 mg/kg/d, n=10). The test compound was suspended in 1% CMC-Na solution and administered by intragastric administration until the end of the study. The weights of the mice were measured every week. Behavioral tests were performed at 12 weeks, 18 weeks, and 24 weeks of age to investigate motor function. At 20 weeks, 3 samples of tissue from each group were used for western blotting and immunohistochemistry. At 24 weeks, MRI scans were performed. At the end of the study, the effect of the test compound on the mortality of mice was evaluated. […] The total protein in the striatum tissue was extracted, and the protein level of DARPP 32 was detected by Western blotting experiment. […] The protein was extracted, and the protein level of DARPP 32 was detected by Western blotting.
# WT mice [2] = experiment: High-altitude balance beam (11 mm) experiment 1, WT mice; type: in vivo, mouse; settings: 5 mg/kg/d intragastric
# Description: 7-week-old N171-82Q HD male mice were paired with female B6C3F1/J hybrid mice to obtain newborn mice. From 21 days of age, male mice were housed in separate cages. 0.5 cm of mouse tail tissue was removed to extract DNA to determine the genotype of the mouse, such that N171-82Q HD mice and WT mice needed for the experiment were obtained. The mice were randomly divided into WT Vehicle group (normal mice), WT test compound group (administration group of normal mice, 5 mg/kg/d, n=10), HD Vehicle group (blank group of HD mice, n=15), HD test compound group (administration groups 1-5 of HD mice, 5 mg/kg/d, n=10). The test compound was suspended in 1% CMC-Na solution and administered by intragastric administration until the end of the study. The weights of the mice were measured every week. Behavioral tests were performed at 12 weeks, 18 weeks, and 24 weeks of age to investigate motor function. At 20 weeks, 3 samples of tissue from each group were used for western blotting and immunohistochemistry. At 24 weeks, MRI scans were performed. At the end of the study, the effect of the test compound on the mortality of mice was evaluated. The software Sigmaplot 13.0 was used for statistical analysis of the data, and the data of each group was expressed as mean standard error (x±SEM). Behavioral test results were analyzed using two-way (genotype and processing factor) ANOVA and post-ho tests, the comparison and statistics of weight data were performed using two-way (genotype and age) ANOVA of repeated measures, and mortality was counted using Kaplan-Meier method. Other measurement data were analyzed by one-way ANOVA. P<0.05 was considered statistically significant. The motor function of mice was evaluated by the rotarod experiment and three types of balance beam experiments. […] If the time for crossing the beams was greater than 60 seconds, it was recorded as 60 seconds. a round balance beam with a length of 80 cm and a diameter of 11 mm was place at a height of about 50 cm from the ground. […]
structure (smiles),measurement,setting,value
"O=c1cc(-c2ccc(N3CCCCC3)cc2)oc2c(O)c(O)ccc12 [Example 1, 7,8-dihydroxy-2-(4-(piperidin-1-yl)phenyl)-4H-chromen-4-one]",Relative intensity of DARPP32 protein,WT mice [1],96.066 ± 5.805
same,"Time for crossing the beams, high-altitude balance beam (11 mm)",WT mice [2]; 12 w,8.18 ± 1.99 s
same,"Time for crossing the beams, high-altitude balance beam (11 mm)",WT mice [2]; 18 w,7.55 ± 2.42 s
same,"Time for crossing the beams, high-altitude balance beam (11 mm)",WT mice [2]; 24 w,8.18 ± 4.29 s

# From patent publication US20200390755A1, “COMPOUND FOR TREATING NERVOUS SYSTEM DISEASES AND USE THEREOF” (SHAANXI MICOT TECHNOLOGY CO., LTD., priority 2018, published 2020)
